One test concerns the target T1, Estrogen receptor (Homo sapiens, UniProt P03372).
T1 sequence (P03372 whole entry): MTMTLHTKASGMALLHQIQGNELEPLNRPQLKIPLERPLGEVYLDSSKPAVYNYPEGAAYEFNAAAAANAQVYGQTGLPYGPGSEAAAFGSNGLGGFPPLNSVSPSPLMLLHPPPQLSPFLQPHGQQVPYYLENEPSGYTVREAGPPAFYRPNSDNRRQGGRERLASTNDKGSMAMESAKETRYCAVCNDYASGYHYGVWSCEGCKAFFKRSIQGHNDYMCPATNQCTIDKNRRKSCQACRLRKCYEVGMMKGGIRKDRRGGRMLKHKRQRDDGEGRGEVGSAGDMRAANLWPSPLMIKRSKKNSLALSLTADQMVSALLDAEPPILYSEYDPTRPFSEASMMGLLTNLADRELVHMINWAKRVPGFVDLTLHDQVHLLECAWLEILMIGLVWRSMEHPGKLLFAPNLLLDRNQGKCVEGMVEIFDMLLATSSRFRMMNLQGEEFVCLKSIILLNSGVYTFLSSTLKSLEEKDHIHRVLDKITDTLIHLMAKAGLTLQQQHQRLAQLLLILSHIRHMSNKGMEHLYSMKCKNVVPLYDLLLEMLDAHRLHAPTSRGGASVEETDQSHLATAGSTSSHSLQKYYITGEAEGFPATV

In another test the target is D(1A) dopamine receptor (Homo sapiens, UniProt P21728).
Test [1] has as its target T2, Endothelin receptor type B (Homo sapiens, UniProt P24530).
T2 sequence (P24530 whole entry): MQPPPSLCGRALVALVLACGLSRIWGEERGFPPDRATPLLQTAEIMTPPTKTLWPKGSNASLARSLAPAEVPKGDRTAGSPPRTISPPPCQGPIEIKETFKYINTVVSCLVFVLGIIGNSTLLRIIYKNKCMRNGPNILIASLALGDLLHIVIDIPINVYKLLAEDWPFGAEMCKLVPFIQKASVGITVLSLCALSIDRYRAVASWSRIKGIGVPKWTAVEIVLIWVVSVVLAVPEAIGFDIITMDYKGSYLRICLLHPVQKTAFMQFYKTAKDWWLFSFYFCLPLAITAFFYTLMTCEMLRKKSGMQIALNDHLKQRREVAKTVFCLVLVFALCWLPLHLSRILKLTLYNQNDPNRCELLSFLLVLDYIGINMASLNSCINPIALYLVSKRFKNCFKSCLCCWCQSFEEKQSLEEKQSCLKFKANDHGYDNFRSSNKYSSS

Test [2] addresses T3, 5-hydroxytryptamine receptor 1A (Homo sapiens, UniProt P08908).
T3 sequence (P08908 whole entry): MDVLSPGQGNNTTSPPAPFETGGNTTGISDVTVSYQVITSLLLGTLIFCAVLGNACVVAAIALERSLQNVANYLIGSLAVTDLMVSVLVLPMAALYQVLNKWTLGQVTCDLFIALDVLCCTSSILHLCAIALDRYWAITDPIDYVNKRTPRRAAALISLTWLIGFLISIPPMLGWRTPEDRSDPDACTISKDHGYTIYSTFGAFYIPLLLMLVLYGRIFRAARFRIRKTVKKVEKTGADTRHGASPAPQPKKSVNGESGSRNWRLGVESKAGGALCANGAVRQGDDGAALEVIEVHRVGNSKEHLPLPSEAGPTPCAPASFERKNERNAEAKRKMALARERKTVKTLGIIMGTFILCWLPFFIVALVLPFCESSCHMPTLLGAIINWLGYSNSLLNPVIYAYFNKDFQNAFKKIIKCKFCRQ

Test [3] concerns the target T4, Gastric inhibitory polypeptide receptor (Homo sapiens, UniProt P48546).
T4 sequence (P48546 whole entry): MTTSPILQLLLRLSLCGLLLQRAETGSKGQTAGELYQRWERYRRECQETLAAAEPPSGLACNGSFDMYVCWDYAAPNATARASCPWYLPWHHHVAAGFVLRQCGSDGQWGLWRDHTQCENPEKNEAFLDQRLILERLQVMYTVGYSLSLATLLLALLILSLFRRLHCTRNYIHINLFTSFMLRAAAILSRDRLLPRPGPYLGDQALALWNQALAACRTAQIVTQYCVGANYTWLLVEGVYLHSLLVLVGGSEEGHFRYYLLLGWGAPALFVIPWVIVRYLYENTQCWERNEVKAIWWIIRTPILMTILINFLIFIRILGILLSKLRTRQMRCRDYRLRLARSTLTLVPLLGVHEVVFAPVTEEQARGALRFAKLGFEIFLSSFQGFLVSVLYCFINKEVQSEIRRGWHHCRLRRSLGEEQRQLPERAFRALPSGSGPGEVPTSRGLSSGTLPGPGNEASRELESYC

The target in a further test is Substance-P receptor (Homo sapiens, UniProt P25103).
Test [4] concerns the target T5, Peroxisome proliferator-activated receptor gamma (Homo sapiens, UniProt P37231).
T5 sequence (P37231 whole entry): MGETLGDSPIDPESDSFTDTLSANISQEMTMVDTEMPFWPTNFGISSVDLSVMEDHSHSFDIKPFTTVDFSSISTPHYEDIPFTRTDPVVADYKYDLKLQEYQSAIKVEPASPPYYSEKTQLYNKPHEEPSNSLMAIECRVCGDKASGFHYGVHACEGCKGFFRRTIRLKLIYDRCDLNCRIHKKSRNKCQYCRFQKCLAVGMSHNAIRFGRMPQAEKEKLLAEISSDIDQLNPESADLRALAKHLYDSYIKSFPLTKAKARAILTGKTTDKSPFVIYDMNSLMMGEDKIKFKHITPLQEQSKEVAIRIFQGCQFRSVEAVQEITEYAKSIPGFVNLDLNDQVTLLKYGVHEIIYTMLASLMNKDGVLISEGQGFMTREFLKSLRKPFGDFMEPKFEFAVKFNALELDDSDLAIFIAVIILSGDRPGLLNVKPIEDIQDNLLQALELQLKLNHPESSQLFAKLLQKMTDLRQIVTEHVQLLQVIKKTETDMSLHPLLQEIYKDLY
Format: functional.

The target in test [5] is Vascular endothelial growth factor receptor 2 (Homo sapiens, UniProt P35968). Format: functional.
For test [6], the target named is T5, Peroxisome proliferator-activated receptor gamma. Format: functional. This is another data set of the same source.

Among the data in ChEMBL document CHEMBL5291721, “A preclinical secondary pharmacology resource illuminates target-adverse drug reaction associations of marketed drugs” (Nat Commun, 2023) are AC50 values, retold here.
Further: assay procedure not described here.

Sequence of Substance-P receptor (P25103 whole entry): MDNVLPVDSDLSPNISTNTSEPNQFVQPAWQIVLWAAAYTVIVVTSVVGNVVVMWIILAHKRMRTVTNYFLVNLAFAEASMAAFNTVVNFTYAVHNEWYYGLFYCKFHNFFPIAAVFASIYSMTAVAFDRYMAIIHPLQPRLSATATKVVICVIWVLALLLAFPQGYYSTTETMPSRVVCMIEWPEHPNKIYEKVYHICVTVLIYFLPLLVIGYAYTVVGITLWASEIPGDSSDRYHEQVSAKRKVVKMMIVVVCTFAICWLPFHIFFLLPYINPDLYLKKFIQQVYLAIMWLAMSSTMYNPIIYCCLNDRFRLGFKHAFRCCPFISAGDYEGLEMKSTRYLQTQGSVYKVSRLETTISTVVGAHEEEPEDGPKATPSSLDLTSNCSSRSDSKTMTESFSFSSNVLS
Sequence of D(1A) dopamine receptor (P21728 whole entry): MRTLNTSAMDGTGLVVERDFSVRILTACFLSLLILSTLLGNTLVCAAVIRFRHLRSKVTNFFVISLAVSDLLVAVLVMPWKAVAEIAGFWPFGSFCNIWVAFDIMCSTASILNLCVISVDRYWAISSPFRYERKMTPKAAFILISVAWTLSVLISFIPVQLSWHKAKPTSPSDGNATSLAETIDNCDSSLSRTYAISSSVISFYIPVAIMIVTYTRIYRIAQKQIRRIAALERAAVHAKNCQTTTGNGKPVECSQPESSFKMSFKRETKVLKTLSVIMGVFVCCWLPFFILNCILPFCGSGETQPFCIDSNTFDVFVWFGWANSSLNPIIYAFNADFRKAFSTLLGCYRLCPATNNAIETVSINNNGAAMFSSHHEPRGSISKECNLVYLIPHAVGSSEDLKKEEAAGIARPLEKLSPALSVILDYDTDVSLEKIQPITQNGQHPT
Sequence of Vascular endothelial growth factor receptor 2 (P35968 whole entry): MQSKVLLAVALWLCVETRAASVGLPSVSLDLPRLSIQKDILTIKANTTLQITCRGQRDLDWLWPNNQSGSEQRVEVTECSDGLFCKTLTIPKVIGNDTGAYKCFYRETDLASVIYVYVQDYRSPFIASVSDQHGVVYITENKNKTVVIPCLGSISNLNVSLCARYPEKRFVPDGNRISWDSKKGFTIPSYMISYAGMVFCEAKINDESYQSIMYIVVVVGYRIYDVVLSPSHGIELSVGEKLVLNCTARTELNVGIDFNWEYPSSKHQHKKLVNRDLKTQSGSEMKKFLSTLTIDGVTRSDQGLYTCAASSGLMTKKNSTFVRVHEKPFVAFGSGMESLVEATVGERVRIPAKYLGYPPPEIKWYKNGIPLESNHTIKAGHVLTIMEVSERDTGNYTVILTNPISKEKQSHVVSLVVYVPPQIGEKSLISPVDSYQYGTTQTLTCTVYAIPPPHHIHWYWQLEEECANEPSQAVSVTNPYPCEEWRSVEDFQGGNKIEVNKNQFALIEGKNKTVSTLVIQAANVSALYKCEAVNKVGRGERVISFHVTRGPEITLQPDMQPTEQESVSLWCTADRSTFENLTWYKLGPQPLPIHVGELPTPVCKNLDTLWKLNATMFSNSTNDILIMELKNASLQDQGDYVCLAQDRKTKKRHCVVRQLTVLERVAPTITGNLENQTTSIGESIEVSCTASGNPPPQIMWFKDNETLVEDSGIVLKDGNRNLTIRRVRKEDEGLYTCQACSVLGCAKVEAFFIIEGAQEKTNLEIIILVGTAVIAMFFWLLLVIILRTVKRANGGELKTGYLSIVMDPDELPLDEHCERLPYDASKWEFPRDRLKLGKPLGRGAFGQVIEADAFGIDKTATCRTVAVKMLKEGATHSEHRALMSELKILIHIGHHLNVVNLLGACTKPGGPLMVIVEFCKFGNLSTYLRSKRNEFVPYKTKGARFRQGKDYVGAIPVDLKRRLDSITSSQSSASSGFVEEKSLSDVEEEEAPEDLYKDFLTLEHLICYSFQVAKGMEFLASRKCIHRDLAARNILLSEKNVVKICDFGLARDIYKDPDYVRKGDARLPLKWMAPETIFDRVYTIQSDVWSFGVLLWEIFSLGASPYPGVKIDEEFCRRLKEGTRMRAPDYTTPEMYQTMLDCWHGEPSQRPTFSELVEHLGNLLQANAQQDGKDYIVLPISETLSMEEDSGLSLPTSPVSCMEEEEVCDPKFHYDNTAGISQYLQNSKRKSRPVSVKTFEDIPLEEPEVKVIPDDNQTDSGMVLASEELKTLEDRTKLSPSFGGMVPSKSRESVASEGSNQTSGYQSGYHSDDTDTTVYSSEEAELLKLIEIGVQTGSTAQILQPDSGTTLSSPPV

As for `C[N+]1(C)CCC(OC(=O)C(O)(c2ccccc2)C2CCCC2)C1` (stereo unspecified) [GLYCOPYRRONIUM BROMIDE], the AC50 on Estrogen receptor was above 30 µM.

Consider `CN(C)CCC(c1ccc(Cl)cc1)c1ccccn1` (stereo unspecified) [CHLORPHENIRAMINE], for which the AC50 at D(1A) dopamine receptor was above 10 µM; in test [1] it was above 30 µM; in test [2] it was above 10 µM; in [3] it was above 30 µM; at Substance-P receptor, above 10 µM.

Regarding `O=C(OCC(O)CO)c1ccccc1Nc1ccnc2cc(Cl)ccc12` (stereo unspecified) [GLAFENINE], the values for the AC50 in [4], in test [5] and in test [6] were above 30 µM, 13 µM and above 30 µM, respectively.

Take `CO[C@H]1C[C@@H]2CC[C@@H](C)[C@@](O)(O2)C(=O)C(=O)N2CCCC[C@H]2C(=O)O[C@H]([C@H](C)C[C@@H]2CC[C@@H](O)[C@H](OC)C2)CC(=O)[C@H](C)/C=C(\C)[C@@H](O)[C@@H](OC)C(=O)[C@H](C)C[C@H](C)/C=C/C=C/C=C/1C` [SIROLIMUS]: the AC50 was above 30 µM in test [1], above 10 µM in [2], above 30 µM in [3] and above 30 µM at Estrogen receptor.

Take `Cc1cn([C@H]2C=C[C@@H](CO)O2)c(=O)[nH]c1=O` [STAVUDINE]: the AC50 at D(1A) dopamine receptor was above 10 µM; in test [1], above 30 µM; in [2], above 10 µM; in test [3], above 30 µM; in test [5], above 30 µM; on Substance-P receptor it was above 10 µM.

With `CCOC(=O)[C@H](CCc1ccccc1)N[C@@H](C)C(=O)N1[C@H](C(=O)O)C[C@@H]2CCC[C@@H]21`, the AC50 is above 10 µM on D(1A) dopamine receptor; above 30 µM in test [1]; above 10 µM in test [2]; above 30 µM in test [3]; above 10 µM on Substance-P receptor; above 30 µM at Estrogen receptor.

`CC[C@H]1[C@@H](O)[C@@H]2[C@H](CC[C@]3(C)[C@@H]([C@H](C)CCC(=O)O)CC[C@@H]23)[C@@]2(C)CC[C@@H](O)C[C@@H]12` [OBETICHOLIC ACID] came in with an AC50 on Estrogen receptor above 30 µM.

For the molecule `CN1C(C(=O)Nc2ccccn2)=C(O)c2sc(Cl)cc2S1(=O)=O` [LORNOXICAM], the figures for the AC50 (in test [2]; on Estrogen receptor) were above 10 µM and above 30 µM, respectively.

As for `Cc1ccc(-c2cc(C(F)(F)F)nn2-c2ccc(S(N)(=O)=O)cc2)cc1` [CELECOXIB], the AC50 at D(1A) dopamine receptor was above 10 µM; in [1], above 30 µM; in [2], above 10 µM; in test [3], above 30 µM; at Substance-P receptor it was above 10 µM; at Estrogen receptor, above 30 µM.

In the case of `CCC(C)n1ncn(-c2ccc(N3CCN(c4ccc(OCC5COC(Cn6cncn6)(c6ccc(Cl)cc6Cl)O5)cc4)CC3)cc2)c1=O` (stereo unspecified) [ITRACONAZOLE], the concentration at half-maximal activity (AC50) is above 10 µM at D(1A) dopamine receptor; above 30 µM in test [1]; above 10 µM in test [2]; above 30 µM in test [3]; 1.54 µM at Substance-P receptor; above 30 µM on Estrogen receptor.

Take `Cc1cn([C@H]2C[C@H](N=[N+]=[N-])[C@@H](CO)O2)c(=O)[nH]c1=O` [ZIDOVUDINE]: the AC50 on D(1A) dopamine receptor was above 10 µM; in test [1], above 30 µM; in test [2] it was above 10 µM; in test [3] it was above 30 µM; at Substance-P receptor, above 10 µM; on Estrogen receptor, above 30 µM.

In the case of `CS(=O)(=O)c1ccc(C2=C(c3ccccc3)C(=O)OC2)cc1` [ROFECOXIB], the AC50 on D(1A) dopamine receptor is above 10 µM; in test [1], above 30 µM; in test [2], above 10 µM; in [3], above 30 µM; on Substance-P receptor, above 10 µM.

With `COCCCN1CCC(NC(=O)c2cc(Cl)c(N)c3c2OCC3)CC1` [PRUCALOPRIDE], the AC50 in [4] and in test [6] was above 30 µM in each case.

As for `C[C@]12CCC(=O)C=C1CC[C@@H]1[C@@H]2[C@@H](O)C[C@@]2(C)[C@H]1CC[C@]2(O)C(=O)CO` [HYDROCORTISONE], the AC50 is above 10 µM at D(1A) dopamine receptor; above 30 µM in [1]; above 10 µM in test [2]; above 30 µM in [3]; above 10 µM at Substance-P receptor.

In turn, `COc1cc(NC(C)CCCN)c2ncccc2c1` (stereo unspecified) [PRIMAQUINE] gave an AC50 on Estrogen receptor of 6.7 µM.

As to `CN(C)/N=N/c1[nH]cnc1C(N)=O` [DACARBAZINE], the AC50 on Estrogen receptor was above 10 µM.

In the case of `CCCCN1C[C@H](O)[C@@H](O)[C@H](O)[C@H]1CO`, the AC50 at Estrogen receptor is above 30 µM.

As to `Clc1ccc2nsnc2c1NC1=NCCN1` [TIZANIDINE], the AC50 is above 10 µM at D(1A) dopamine receptor; above 30 µM in test [1]; above 10 µM in test [2]; above 30 µM in test [3]; above 10 µM on Substance-P receptor; above 30 µM at Estrogen receptor.

For the molecule `CC1=C(C(=O)O)N2C(=O)[C@@H](NC(=O)[C@H](N)c3ccccc3)[C@H]2SC1` [CEPHALEXIN ANHYDROUS], the AC50 in test [1] is above 30 µM; in [2] it was above 10 µM; in [3], above 30 µM; at Substance-P receptor, above 10 µM; at Estrogen receptor, above 30 µM.

Take `Nc1ccn([C@H]2CC[C@@H](CO)O2)c(=O)n1` [ZALCITABINE]: the AC50 at Estrogen receptor was above 10 µM.

The molecule `COc1cc2nc(N(C)CCCNC(=O)C3CCCO3)nc(N)c2cc1OC` (stereo unspecified) [ALFUZOSIN] gave an AC50 on Estrogen receptor above 30 µM.

In the case of `N[C@@H]1[C@H]2CN(c3nc4c(cc3F)c(=O)c(C(=O)O)cn4-c3ccc(F)cc3F)C[C@@H]12` [TROVAFLOXACIN], the AC50 in test [4] and in test [6] was above 30 µM throughout.

Molecule `COc1ccccc1OCC(O)CN1CCN(CC(=O)Nc2c(C)cccc2C)CC1` (stereo unspecified) [RANOLAZINE] returned an AC50 on Estrogen receptor above 30 µM.

On to `CC[C@H]1OC(=O)[C@H](C)[C@@H](O[C@H]2C[C@@](C)(OC)[C@@H](O)[C@H](C)O2)[C@H](C)[C@@H](O[C@@H]2O[C@H](C)C[C@H](N(C)C)[C@H]2O)[C@](C)(O)C[C@@H](C)CN(C)[C@H](C)[C@@H](O)[C@]1(C)O` [AZITHROMYCIN], for which the AC50 was above 10 µM on D(1A) dopamine receptor; above 30 µM in test [1]; above 10 µM in test [2]; above 30 µM in test [3]; above 10 µM at Substance-P receptor; above 30 µM at Estrogen receptor.

With `O=C1Nc2ccc(Cl)cc2[C@@](C#CC2CC2)(C(F)(F)F)O1` [EFAVIRENZ], the figures for the AC50 (in [4]; in test [6]; on Estrogen receptor) were 18 µM, above 30 µM and above 30 µM, respectively.
